From PubChem BioAssay AID250 (DTP/NCI, 2004) come the findings set out here.

This assay concerns BDF1 mice, L1210 leukemia sc, survival T/C. In words: NCI In Vivo Anticancer Drug Screen. Data for tumor model L1210 Leukemia (subcutaneous) in B6D2F1 (BDF1) mice. The conditions noted are these: endpoint: median survival time, higher = longer survival. Here is the method:
The antitumor activity of compounds was measured in mice bearing transplantable tumors. Survival or tumor size were measured and the results are expressed as the measurement made in the treated group (T) divided by the measurement made in the vehicle treated control group (C). The tumor model used in this assay is L1210 Leukemia (subcutaneous) in B6D2F1 (BDF1) mice

[1] abbreviates: dose: 1.0 mg/kg/injection, schedule: Q04DX003 (ip), vehicle: saline.
Where [2] appears, read: dose: 2.0 mg/kg/injection, schedule: Q04DX003 (ip), vehicle: saline.
[3] abbreviates: dose: 4.0 mg/kg/injection, schedule: Q04DX003 (ip), vehicle: saline.

Values joined by “and” are separate entries in the source; they are usually repeats but may differ in a detail not shown here. Equal values may be shown once. Inconclusive results and toxic doses are left out.

With `COc1cccc2c1C(=O)c1c(O)c3c(c(O)c1C2=O)C[C@@](O)(C(=O)CO)C[C@@H]3OC1CC(N)C(O)C(C)O1` (stereo partly specified), the T/C reads like this: (dose: 0.39 mg/kg/injection, schedule: Q03HX008 (ip), vehicle: water) 88 % of control; (dose: 0.39 mg/kg/injection, schedule: Q03HX008 (sc), vehicle: water) 100 % of control; (dose: 0.65 mg/kg/injection, schedule: Q01DX005 (ip), vehicle: water) 95 % of control; (dose: 0.65 mg/kg/injection, schedule: Q01DX005 (sc), vehicle: water) 95 % of control; (dose: 0.65 mg/kg/injection, schedule: Q03HX008 (ip), vehicle: water) 100 % of control (2×) and 111 % of control; under setting [1], 92 % of control. Besides, the T/C is 95 % of control (dose: 1.08 mg/kg/injection, schedule: Q01DX005 (ip), vehicle: water); 100 % of control (dose: 1.08 mg/kg/injection, schedule: Q01DX005 (sc), vehicle: water); 100 % of control and 105 % of control and 111 % of control (dose: 1.08 mg/kg/injection, schedule: Q03HX008 (ip), vehicle: water); 100 % of control (dose: 1.8 mg/kg/injection, schedule: Q01DX005 (ip), vehicle: water); 110 % of control (dose: 1.8 mg/kg/injection, schedule: Q01DX005 (sc), vehicle: water); 111 % of control (dose: 1.8 mg/kg/injection, schedule: Q03HX008 (ip), vehicle: water). The T/C by setting is: (dose: 1.8 mg/kg/injection, schedule: Q04DX003 (sc), vehicle: water) 111 % of control; under setting [2], 94 % of control; (dose: 3.0 mg/kg/injection, schedule: Q01DX001 (sc), vehicle: water) 111 % of control; (dose: 3.0 mg/kg/injection, schedule: Q01DX005 (sc), vehicle: water) 110 % of control; (dose: 3.0 mg/kg/injection, schedule: Q04DX003 (sc), vehicle: water) 116 % of control; under setting [3], 92 % of control. Further, the T/C by setting is: (dose: 5.0 mg/kg/injection, schedule: Q01DX001 (iv), vehicle: water) 111 % of control and 115 % of control; (dose: 5.0 mg/kg/injection, schedule: Q01DX001 (sc), vehicle: water) 111 % of control; (dose: 5.0 mg/kg/injection, schedule: Q04DX003 (sc), vehicle: water) 122 % of control; (dose: 8.0 mg/kg/injection, schedule: Q04DX003 (ip), vehicle: saline) 91 % of control; (dose: 8.4 mg/kg/injection, schedule: Q01DX001 (iv), vehicle: water) 122 % of control; (dose: 14.0 mg/kg/injection, schedule: Q01DX001 (sc), vehicle: water) 111 % of control. Further, the T/C reads like this: (dose: 14.0 mg/kg/injection, schedule: Q04DX003 (sc), vehicle: water) 94 % of control; (dose: 23.0 mg/kg/injection, schedule: Q01DX001 (iv), vehicle: water) 67 % of control.

In the case of `COc1cccc2c1C(=O)c1c(O)c3c(c(O)c1C2=O)C[C@@](O)(C(C)=O)C[C@@H]3OC1CC(N)C(O)C(C)O1` (stereo partly specified), the T/C reads like this: under setting [1], 88 % of control; under setting [2], 90 % of control; (dose: 3.0 mg/kg/injection, schedule: Q01DX Z (sc), vehicle: saline) 95 % of control and 100 % of control; (dose: 3.1 mg/kg/injection, schedule: Q01DX Z (sc), vehicle: saline) 95 % of control; under setting [3], 89 % of control; (dose: 5.0 mg/kg/injection, schedule: Q01DX Z (sc), vehicle: saline) 100 % of control and 115 % of control. Also, the T/C was 104 % of control (dose: 5.0 mg/kg/injection, schedule: Q01DX Z (sc), vehicle: water); 100 % of control (dose: 5.2 mg/kg/injection, schedule: Q01DX Z (sc), vehicle: saline); 105 % of control and 111 % of control (dose: 6.5 mg/kg/injection, schedule: Q04DX003 (sc), vehicle: water); 150 % of control (dose: 8.4 mg/kg/injection, schedule: Q01DX Z (sc), vehicle: saline); 109 % of control and 111 % of control (dose: 10.8 mg/kg/injection, schedule: Q04DX003 (sc), vehicle: water); 120 % of control (dose: 14.0 mg/kg/injection, schedule: Q01DX Z (sc), vehicle: saline). The T/C (dose: 14.0 mg/kg/injection, schedule: Q01DX Z (sc), vehicle: water) was 123 % of control; the T/C (dose: 23.0 mg/kg/injection, schedule: Q01DX Z (sc), vehicle: saline) is 110 % of control and 120 % of control; the T/C (dose: 23.0 mg/kg/injection, schedule: Q01DX Z (sc), vehicle: water) was 109 % of control; the T/C (dose: 24.0 mg/kg/injection, schedule: Q01DX Z (sc), vehicle: saline) was 120 % of control; the T/C (dose: 30.0 mg/kg/injection, schedule: Q04DX003 (sc), vehicle: water) is 99 % of control and 100 % of control; the T/C (dose: 39.0 mg/kg/injection, schedule: Q01DX Z (sc), vehicle: saline) was 110 % of control. Also, the T/C reads like this: (dose: 39.0 mg/kg/injection, schedule: Q01DX Z (sc), vehicle: water) 104 % of control; (dose: 40.0 mg/kg/injection, schedule: Q01DX Z (sc), vehicle: saline) 110 % of control; (dose: 65.0 mg/kg/injection, schedule: Q01DX Z (sc), vehicle: water) 95 % of control.

Take `O=C1CCC(N2C(=O)c3ccccc3C2=O)C(=O)N1` (stereo unspecified): the T/C is 100 % of control (dose: 6.0 mg/kg/injection, schedule: Q01DX Z (sc), vehicle: methylcellulose (MC)); 100 % of control (dose: 12.0 mg/kg/injection, schedule: Q01DX Z (sc), vehicle: methylcellulose (MC)); 100 % of control (dose: 24.0 mg/kg/injection, schedule: Q01DX Z (sc), vehicle: methylcellulose (MC)); 100 % of control (dose: 48.0 mg/kg/injection, schedule: Q01DX Z (sc), vehicle: methylcellulose (MC)); 100 % of control (dose: 65.0 mg/kg/injection, schedule: Q01DX Z (sc), vehicle: methylcellulose (MC)); 94 % of control (dose: 108.0 mg/kg/injection, schedule: Q01DX Z (sc), vehicle: methylcellulose (MC)). Moreover, the T/C was 88 % of control (dose: 180.0 mg/kg/injection, schedule: Q01DX Z (sc), vehicle: methylcellulose (MC)); 100 % of control (dose: 300.0 mg/kg/injection, schedule: Q01DX Z (sc), vehicle: methylcellulose (MC)); 100 % of control (dose: 500.0 mg/kg/injection, schedule: Q01DX Z (sc), vehicle: methylcellulose (MC)).
